Common to all, as to format: in vivo
For experiment [1], the system named is rust (Cronartium ribicola). In words: Field test of betaines to control rust on black currants. The conditions noted are these: 0.10% ai, black currant, resprayed every 7 to 10 days. The text has this: The purpose of this test was to evaluate 6 betaines for controlling rust (Cronartium ribicola) on black currant. Following formation of compositions of Coco betaine, C16 betaine, C18:1 betaine, Coco amidopropyl betaine, C18:1 amidopropyl betaine, and Coco sulfo betaine having varying betaine concentrations (using the commercially available forms of the betaines as discussed herein and a water solvent), and a copper octanoate standard (formed from a commercially available form entitled “Soap Shield” from Gardens Alive, Ind., USA), the compositions/solution were sprayed to run off onto eight-year-old black currants. Every treatment had nine plants, and the plants were resprayed every 7 to 10 days.

Experiment [2] deals with powdery mildew (Sphaerotheca fuliginea). In words: Greenhouse test of betaines for controlling powdery mildew on dandelion. The method, then:
The purpose of this test was to evaluate the control of powdery mildew (Sphaerotheca fuliginea) on dandelion (Taraxacum officinale). Compositions of C12 betaine, Coco betaine, C16 betaine, C18:1 betaine, Coco amidopropyl betaine, C18:1 amidopropyl betaine, and Coco sulfo betaine were formed using the commercially available forms of the betaines as disclosed herein. Additionally, a sulfur standard was prepared using a commercially available form of sulfur (Red Ball EM-53) from International Chem. Inc., USA. For each treatment, twelve 20 cm diameter dandelions were used, and at the start of the test, all of the leaves were trimmed off of the plants. The test evaluated disease development on fully formed leaves. Each composition was sprayed to run off the plants, and resprayed 3 times every 7 days. The plants were also reinoculated by placing diseased dandelions amongst the test plants.

Experiment [3] concerns rose blackspot (Diplocarpon rosae). The experiment is described as follows: Field test of betaines to control blackspot on Altissimo roses. The conditions noted are these: 0.2%. The text has this:
The purpose of this test was to evaluate various betaines for controlling rose blackspot (Diplocarpon rosae) on Altissimo roses under field conditions. Following formation of compositions of cetyl betaine, cocobetaine, and coco amidopropyl betaine using the commercially available forms of the betaines as disclosed herein as well as formation of a standard 0.2% sulfur solution, the compositions/solution were sprayed to run off onto mature Altissimo rose plants. Nine plants were used in each treatment, and the plants were resprayed every 7 to 10 days for over a 100 day period.
Table 1, below, illustrates the results obtained from treatments of cetyl betaine at various concentrations ranging from about 0.020% ai to 0.100% ai, as well as cocobetaine at a 0.05% ai concentration and coco amiodopropyl betaine at a 0.10% ai concentration.

In the case of `CCCCCCCC/C=C\CCCCCCCC(=O)NCCC[N+](C)(C)CC(=O)[O-]` [C18:1 amidopropyl betaine, oleamidopropyl betaine], the “Rust Sori Per 9 Plants” value in experiment [1] is listed as 2121. In experiment [2] (0.1% ai), the “Leaf Area Colonized by Powdery Mildew (%)” value (“Leaf Area Colonized … (%)” for short) is given as 0.9%.

In the case of `S1SSSSSSS1` [Sulfur], the “Leaf Area Colonized … (%)” value in experiment [2] (0.2% ai) was found to be 0.0%. The “Leaflets with Blackspot (%)” value is on record as 0.8% in experiment [3] (75 DAT) and 1.5% in experiment [3] (102 DAT).

Consider `CCCCCCCC/C=C\CCCCCCCC[N+](C)(C)CC(=O)[O-]` [C18:1 betaine, oleyl betaine], for which, in experiment [1], the “Rust Sori Per 9 Plants” value was found to be 550. Moreover, the “Leaf Area Colonized … (%)” value in experiment [2] (0.1% ai) turned out to be 2.3%.

Consider Copper octanoate [reference compound], for which the “Rust Sori Per 9 Plants” value in experiment [1] is listed as 135.

For the origin of these results see patent US20060211575A1, “CONTROL FOR PLANT AND PLANT PRODUCT PATHOGENS” (W. NEUDORFF GMBH KG, priority 2005, published 2006).
